pIC50: −log10 of the molar value. Like-named read-outs stand apart in the source and are kept apart here.

Data on 30 compounds can be found in patent US10329302B2, “Bicyclic-fused heteroaryl or aryl compounds” (Pfizer Inc., priority 2014, dated 2019).

The subject of assay [1] is R848-induced TNFα production by human peripheral blood mononuclear cells (PBMCs). Kind of assay: R848 Induced TNFα in Human PBMC Assay. Type of assay: cell-based. To be noted: Homo sapiens, PBMC, 3 h, read-out: R848-induced TNFa PBMC IC50 (nM).
In assay [2] the target is human IRAK4 FL (Full Length) (Homo sapiens (Human), UniProt Q9NWZ3). The experiment in a line: IRAK4 Enzymatic DELFIA Assay, Protocol A. Format: biochemical.
Sequence of human IRAK4 FL (Full Length) (Q9NWZ3 whole entry): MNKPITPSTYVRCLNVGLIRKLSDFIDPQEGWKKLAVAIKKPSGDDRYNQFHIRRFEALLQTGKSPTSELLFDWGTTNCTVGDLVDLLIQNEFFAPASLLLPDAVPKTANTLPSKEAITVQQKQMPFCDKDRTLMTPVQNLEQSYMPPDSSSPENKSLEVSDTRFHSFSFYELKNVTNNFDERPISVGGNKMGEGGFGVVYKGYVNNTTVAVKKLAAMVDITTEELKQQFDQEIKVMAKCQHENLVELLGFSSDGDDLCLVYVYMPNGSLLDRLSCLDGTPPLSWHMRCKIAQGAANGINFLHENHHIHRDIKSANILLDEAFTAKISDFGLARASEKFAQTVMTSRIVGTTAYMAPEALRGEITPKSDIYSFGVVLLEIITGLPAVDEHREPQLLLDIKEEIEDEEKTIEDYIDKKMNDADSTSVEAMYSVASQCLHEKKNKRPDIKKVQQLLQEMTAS
Setting [3] is: human IRAK4 FL, 0.6 mM ATP (KM), read-out: IRAK4 DELFIA Protocol A IC50.

As for `CC(C)Oc1cc2c(OC[C@@H]3CCCC(=O)N3)nccc2cc1C(N)=O` [Example 06, 1-{[(2S)-6-oxopiperidin-2-yl]methoxy}-7-(propan-2-yloxy)isoquinoline-6-carboxamide], the IC50 in assay [1] is 472 nM. Moreover, in assay [2] (setting [3]), the pIC50 is 7.29.

On to `CC(C)Oc1cc2c(OC[C@@H]3CC(C)(C)C(=O)N3)nccc2cc1C(N)=O` [Example 110, 1-{[(2S)-4,4-dimethyl-5-oxopyrrolidin-2-yl]methoxy}-7-(propan-2-yloxy)isoquinoline-6-carboxamide], for which the IC50 in assay [1] stood at 1170 nM. Also, the pIC50 in assay [2] (setting [3]) is 6.38.

As to `CC(C)Oc1cc2c(OC[C@@H]3CC(F)C(=O)N3)nccc2cc1C(N)=O` (stereo partly drawn) [Example 112, 1-{[(2S)-4-fluoro-5-oxopyrrolidin-2-yl]methoxy}-7-(propan-2-yloxy)isoquinoline-6-carboxamide], in assay [1], the IC50 amounted to 50 nM. Besides, the pIC50 in assay [2] (setting [3]) was 9.00.

Take `CC(C)Oc1cc2c(OC[C@@H]3CCC(=O)N3)cccc2cc1C(N)=O` [Example 114, 5-{[(2S)-5-oxopyrrolidin-2-yl]methoxy}-3-(propan-2-yloxy)naphthalene-2-carboxamide]: in assay [1], the IC50 worked out at 33 nM. Also, the negative-log IC50 (pIC50) in assay [2] (setting [3]) is 9.15.

As to `CC(C)Oc1cc2c(OC[C@@H]3C[C@@H](C)C(=O)N3)nccc2cc1C(N)=O` [Example 124, 1-{[(2S,4R)-4-methyl-5-oxopyrrolidin-2-yl]methoxy}-7-(propan-2-yloxy)isoquinoline-6-carboxamide], the IC50 in assay [1] was 175 nM. The pIC50 in assay [2] (setting [3]) was 8.11.

`CC(C)Oc1cc2c(OC[C@@H]3C[C@H](C)C(=O)N3)nccc2cc1C(N)=O` [Example 125, 1-{[(2S,4S)-4-methyl-5-oxopyrrolidin-2-yl]methoxy}-7-(propan-2-yloxy)isoquinoline-6-carboxamide]: in assay [1], the IC50 is 685 nM. Moreover, the pIC50 in assay [2] (setting [3]) was 7.40.

Take `COCC1C[C@@H](COc2nccc3cc(C(N)=O)c(OC(C)C)cc23)NC1=O` (stereo partly drawn) [Example 127, 1-{[(2S)-4-(methoxymethyl)-5-oxopyrrolidin-2-yl]methoxy}-7-(propan-2-yloxy)isoquinoline-6-carboxamide]: the IC50 in assay [1] came out at 682 nM. For the same compound, the negative logarithm of the IC50 (pIC50) in assay [2] (setting [3]) is 7.19.

Regarding `CC(C)Oc1cc2c(OC[C@@H]3CC(F)(F)C(=O)N3)nccc2cc1C(N)=O` [Example 128, 1-{[(2S)-4,4-difluoro-5-oxopyrrolidin-2-yl]methoxy}-7-(propan-2-yloxy)isoquinoline-6-carboxamide], the IC50 in assay [1] came to 27 nM. Moreover, in assay [2] (setting [3]), the pIC50 was 9.52.

Consider `CC[C@]1(F)C[C@@H](COc2nccc3cc(C(N)=O)c(OC(C)C)cc23)NC1=O` [Example 131, 1-{[(2S,4S)-4-ethyl-4-fluoro-5-oxopyrrolidin-2-yl]methoxy}-7-(propan-2-yloxy)isoquinoline-6-carboxamide], for which, in assay [1], the 50% inhibitory concentration (IC50) was determined as 29 nM. The pIC50 in assay [2] (setting [3]) was 9.22.

`CC[C@@]1(F)C[C@@H](COc2nccc3cc(C(N)=O)c(OC(C)C)cc23)NC1=O` [Example 132, 1-{[(2S,4R)-4-ethyl-4-fluoro-5-oxopyrrolidin-2-yl]methoxy}-7-(propan-2-yloxy)isoquinoline-6-carboxamide]: the IC50 in assay [1] came to 1180 nM. In addition, the pIC50 in assay [2] (setting [3]) is 6.73.

Consider `CC(C)Oc1cc2c(OC[C@@H]3C[C@](C)(F)C(=O)N3)nccc2cc1C(N)=O` [Example 134, 1-{[(2S,4S)-4-fluoro-4-methyl-5-oxopyrrolidin-2-yl]methoxy}-7-(propan-2-yloxy)isoquinoline-6-carboxamide], for which the IC50 in assay [1] was 36 nM. In assay [2] (setting [3]), the pIC50 is 9.00.

On to `CC[C@H]1C[C@@H](COc2nccc3cc(C(N)=O)c(OC(C)C)cc23)NC1=O` [Example 135, 1-{[(2S,4S)-4-ethyl-5-oxopyrrolidin-2-yl]methoxy}-7-(propan-2-yloxy)isoquinoline-6-carboxamide], for which the half-maximal inhibitory concentration (IC50) in assay [1] came to 32 nM. Further, in assay [2] (setting [3]), the pIC50 was 8.92.

For `CC[C@@H]1C[C@@H](COc2nccc3cc(C(N)=O)c(OC(C)C)cc23)NC1=O` [Example 136, 1-{[(2S,4R)-4-ethyl-5-oxopyrrolidin-2-yl]methoxy}-7-(propan-2-yloxy)isoquinoline-6-carboxamide], the IC50 in assay [1] was determined as 184 nM. Further, in assay [2] (setting [3]), the pIC50 is 8.11.

As for `CC(C)Oc1cc2c(OC[C@H]3NC(=O)C[C@@H]3C)nccc2cc1C(N)=O` [Example 141, 1-{[(2S,3S)-3-methyl-5-oxopyrrolidin-2-yl]methoxy}-7-(propan-2-yloxy)isoquinoline-6-carboxamide], the IC50 in assay [1] amounted to 294 nM. The pIC50 in assay [2] (setting [3]) was 7.15.

As for `CC(C)Oc1cc2c(OC[C@@H]3C[C@@H](F)C(=O)N3)nccc2cc1C(N)=O` [Example 144, 1-{[(2S,4R)-4-fluoro-5-oxopyrrolidin-2-yl]methoxy}-7-(propan-2-yloxy)isoquinoline-6-carboxamide], the IC50 in assay [1] turned out to be 141 nM. Moreover, the pIC50 in assay [2] (setting [3]) was 8.85.

With `CC(C)Oc1cc2c(OC[C@@H]3C[C@H](F)C(=O)N3)nccc2cc1C(N)=O` [Example 145, 1-{[(2S,4S)-4-fluoro-5-oxopyrrolidin-2-yl]methoxy}-7-(propan-2-yloxy)isoquinoline-6-carboxamide], the IC50 in assay [1] came out at 41 nM. For the same compound, the pIC50 in assay [2] (setting [3]) was 9.40.

On to `COc1cc2c(OC[C@@H]3CC(F)(F)C(=O)N3)nccc2cc1C(N)=O` [Example 146, 1-{[(2S)-4,4-difluoro-5-oxopyrrolidin-2-yl]methoxy}-7-methoxyisoquinoline-6-carboxamide], for which the IC50 in assay [1] came out at 15 nM. For the same compound, the pIC50 in assay [2] (setting [3]) was 9.70.

As to `CC(C)Oc1cc2c(OCC3(CO)CCC(=O)N3)nccc2cc1C(N)=O` (stereo not drawn) [Example 147, 1-{[2-(hydroxymethyl)-5-oxopyrrolidin-2-yl]methoxy}-7-(propan-2-yloxy)isoquinoline-6-carboxamide], the half-inhibitory concentration (IC50) in assay [1] is 1160 nM. In assay [2], the pIC50 is 7.23.

Turning to `CC(C)Oc1cc2c(OC[C@@H]3C[C@H](O)C(=O)N3)nccc2cc1C(N)=O` [Example 150, 1-{[(2S,4S)-4-hydroxy-5-oxopyrrolidin-2-yl]methoxy}-7-(propan-2-yloxy)isoquinoline-6-carboxamide], in assay [1], the IC50 is 864 nM. For the same compound, the negative logarithm of the IC50 (pIC50) in assay [2] (setting [3]) was 7.39.

As for `CC(C)Oc1cc2c(OC[C@@H]3C[C@@H](CC(F)(F)F)C(=O)N3)nccc2cc1C(N)=O` [Example 151, 1-{[(2S,4S)-5-oxo-4-(2,2,2-trifluoroethyl)pyrrolidin-2-yl]methoxy}-7-(propan-2-yloxy)isoquinoline-6-carboxamide], in assay [1], the half-maximal inhibitory concentration (IC50) worked out at 25 nM. Also, in assay [2] (setting [3]), the pIC50 is 8.92.

As for `CC(C)Oc1cc2c(OC[C@@H]3C[C@H](CC(F)(F)F)C(=O)N3)nccc2cc1C(N)=O` [Example 152, 1-{[(2S,4R)-5-oxo-4-(2,2,2-trifluoroethyl)pyrrolidin-2-yl]methoxy}-7-(propan-2-yloxy)isoquinoline-6-carboxamide], the half-inhibitory concentration (IC50) in assay [1] turned out to be 139 nM. Besides, the pIC50 in assay [2] (setting [3]) is 8.17.

As to `CC(C)Oc1cc2c(OC[C@@H]3C[C@](F)(CO)C(=O)N3)nccc2cc1C(N)=O` [Example 163, 1-{[(2S,4S)-4-fluoro-4-(hydroxymethyl)-5-oxopyrrolidin-2-yl]methoxy}-7-(propan-2-yloxy)isoquinoline-6-carboxamide], in assay [1], the IC50 was determined as 7450 nM. In addition, the pIC50 in assay [2] (setting [3]) is 5.86.

With `CC(C)Oc1cc2c(OC[C@@H]3C[C@@](F)(CO)C(=O)N3)nccc2cc1C(N)=O` [Example 164, 1-{[(2S,4R)-4-fluoro-4-(hydroxymethyl)-5-oxopyrrolidin-2-yl]methoxy}-7-(propan-2-yloxy)isoquinoline-6-carboxamide], the IC50 in assay [1] came out at 116 nM. Further, the pIC50 in assay [2] (setting [3]) is 8.77.

Turning to `CC(C)Oc1cc2c(OC[C@@H]3C[C@@H](CO)C(=O)N3)nccc2cc1C(N)=O` [Example 166, 1-{[(2S,4S)-4-(hydroxymethyl)-5-oxopyrrolidin-2-yl]methoxy}-7-(propan-2-yloxy)isoquinoline-6-carboxamide], the IC50 in assay [1] stood at 389 nM. The pIC50 in assay [2] (setting [3]) is 8.37.

Regarding `CC(C)Oc1cc2c(OC[C@@H]3CCC(=O)N3)ncc(F)c2cc1C(N)=O` [Example 168, 4-fluoro-1-{[(2S)-5-oxopyrrolidin-2-yl]methoxy}-7-(propan-2-yloxy)isoquinoline-6-carboxamide], the IC50 in assay [1] worked out at 1460 nM. Besides, the pIC50 in assay [2] (setting [3]) was 8.18.

As to `CC(C)Oc1cc2c(OC[C@H]3NC(=O)[C@H](F)[C@H]3C)nccc2cc1C(N)=O` [Example 170, 1-{[(2S,3S,4R)-4-fluoro-3-methyl-5-oxopyrrolidin-2-yl]methoxy}-7-(propan-2-yloxy)isoquinoline-6-carboxamide], the IC50 in assay [1] amounted to 41 nM. Moreover, the pIC50 in assay [2] (setting [3]) was 9.10.

As to `CC(C)Oc1cc2c(OC[C@H]3NC(=O)[C@@H]4C[C@H]34)nccc2cc1C(N)=O` [Example 174, 1-{[(1S,2S,5R)-4-oxo-3-azabicyclo[3.1.0]hex-2-yl]methoxy}-7-(propan-2-yloxy)isoquinoline-6-carboxamide], in assay [1], the IC50 was found to be 126 nM. The pIC50 in assay [2] (setting [3]) was 8.51.

Regarding `COc1cc2c(OC[C@@H]3C[C@](C)(F)C(=O)N3)nccc2cc1C(N)=O` [Example 177, 1-{[(2S,4S)-4-fluoro-4-methyl-5-oxopyrrolidin-2-yl]methoxy}-7-methoxyisoquinoline-6-carboxamide], the IC50 in assay [1] worked out at 43 nM. Also, the pIC50 in assay [2] (setting [3]) was 8.42.

Regarding `CC(C)Oc1cc2c(OC[C@@H]3C[C@@H](O)C(=O)N3)nccc2cc1C(N)=O` [Example 179, 1-{[(2S,4R)-4-hydroxy-5-oxopyrrolidin-2-yl]methoxy}-7-(propan-2-yloxy)isoquinoline-6-carboxamide], the IC50 in assay [1] was found to be 199 nM. In assay [2] (setting [3]), the pIC50 is 8.92.

For `CC(C)Oc1cc2c(OC[C@@H]3CCC(=O)N3C)nccc2cc1C(N)=O` [Example 180, 1-{[(2S)-1-methyl-5-oxopyrrolidin-2-yl]methoxy}-7-(propan-2-yloxy)isoquinoline-6-carboxamide], in assay [1], the IC50 was found to be 2560 nM. Further, the pIC50 in assay [2] (setting [3]) was 5.75.

In general, IC50 refers to the point on the concentration scale where inhibition reaches its midpoint. What is called pIC50 is the IC50 on a negative log10 scale, so that one unit is a factor of ten.
